Test: mn = molality of the nth substance listed, in mol/kg
Details: 100 kPa, Liquid

CC(C)C[C@H](NC(=O)[C@@H]1CCCN1)C(=O)O [proline-leucine] + O
mass density [kg/m3]
Details	283.15 K	288.15 K	293.15 K	298.15 K	303.15 K	308.15 K
m1 = 0.00191	–	–	998.299	–	–	994.122
m1 = 0.0025	–	999.209	998.324	997.166	–	994.156
m1 = 0.00255	–	–	–	–	995.771	–
m1 = 0.0035	999.851	999.261	998.368	997.215	–	994.198
m1 = 0.00399	–	999.283	998.394	–	–	–
m1 = 0.0045	999.901	999.303	998.416	997.251	995.856	994.246
m1 = 0.00505	999.956	999.356	998.452	–	–	994.278
m1 = 0.00549	–	999.353	998.462	997.3	995.925	994.294
m1 = 0.00602	1000	999.407	998.502	997.35	995.943	994.322
m1 = 0.00649	–	–	998.533	997.374	995.96	994.345
m1 = 0.00709	1000.06	999.445	998.552	997.381	–	–
m1 = 0.00748	–	999.48	998.581	997.416	995.999	994.392
m1 = 0.00776	1000.09	–	–	–	–	–
m1 = 0.00833	–	999.516	998.63	–	996.05	994.433
m1 = 0.00849	–	999.544	998.633	997.468	996.044	994.436
m1 = 0.00904	1000.16	999.542	998.644	–	–	–
m1 = 0.00949	–	999.594	998.69	997.521	996.091	–
m1 = 0.01004	–	999.608	998.704	997.541	996.128	994.51
m1 = 0.0105	1000.24	999.641	998.74	997.562	996.136	–
m1 = 0.01084	1000.25	999.633	–	997.57	–	994.545
m1 = 0.01148	1000.3	999.691	998.787	997.614	996.183	–

Reference: the NIST ThermoML archive (doi:10.1016/j.jct.2004.07.004)
